# Assay results: PubChem BioAssay AID330 (DTP/NCI, 2004)
# Several values for one entry are separate records, joined by “and”; a condition that tells them apart may be missing. Identical values can stand only once. Toxic doses and inconclusive results are not listed. Peptide text beside a SMILES is read from it.
# Tested on: P388 leukemia ip, CD2F1 mice, survival T/C
# Assay: NCI In Vivo Anticancer Drug Screen. Data for tumor model P388 Leukemia (intraperitoneal) in CD2F1 (CDF1) mice
# Settings: endpoint: median survival time, higher = longer survival
# In short: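 Mice carrying the transplanted tumor received test compound or vehicle. Survival was recorded in each group, and the value is the treated-group measurement divided by that of the vehicle-treated control group.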
# [1] = dose: 60.0 mg/kg/injection, schedule: Q01DX005 (ip), vehicle: saline with Tween-80
# [2] = dose: 120.0 mg/kg/injection, schedule: Q01DX005 (ip), vehicle: saline with Tween-80
# [3] = dose: 50.0 mg/kg/injection, schedule: Q01DX005 (ip), vehicle: saline with Tween-80
# [4] = dose: 100.0 mg/kg/injection, schedule: Q01DX005 (ip), vehicle: saline with Tween-80
# [5] = dose: 200.0 mg/kg/injection, schedule: Q01DX005 (ip), vehicle: saline with Tween-80
# [6] = dose: 12.5 mg/kg/injection, schedule: Q01DX009 (ip), vehicle: saline with Tween-80
# [7] = dose: 25.0 mg/kg/injection, schedule: Q01DX009 (ip), vehicle: saline with Tween-80
# [8] = dose: 50.0 mg/kg/injection, schedule: Q01DX009 (ip), vehicle: saline with Tween-80
# [9] = dose: 100.0 mg/kg/injection, schedule: Q01DX009 (ip), vehicle: saline with Tween-80
# [10] = dose: 200.0 mg/kg/injection, schedule: Q01DX009 (ip), vehicle: saline with Tween-80
# [11] = dose: 240.0 mg/kg/injection, schedule: Q01DX005 (ip), vehicle: saline with Tween-80
# [12] = dose: 50.0 mg/kg/injection, schedule: Q01DX009 (ip), vehicle: Klucel (hydroxypropylcellulose) (HPC)
# [13] = dose: 100.0 mg/kg/injection, schedule: Q01DX009 (ip), vehicle: Klucel (hydroxypropylcellulose) (HPC)
# [14] = dose: 200.0 mg/kg/injection, schedule: Q01DX009 (ip), vehicle: Klucel (hydroxypropylcellulose) (HPC)
# [15] = dose: 100.0 mg/kg/injection, schedule: Q04DX003 (ip), vehicle: Klucel (hydroxypropylcellulose) (HPC)
# [16] = dose: 200.0 mg/kg/injection, schedule: Q04DX003 (ip), vehicle: Klucel (hydroxypropylcellulose) (HPC)
# [17] = dose: 25.0 mg/kg/injection, schedule: Q04DX003 (ip), vehicle: Klucel (hydroxypropylcellulose) (HPC)
# [18] = dose: 50.0 mg/kg/injection, schedule: Q04DX003 (ip), vehicle: Klucel (hydroxypropylcellulose) (HPC)
# [19] = dose: 12.5 mg/kg/injection, schedule: Q01DX009 (ip), vehicle: Klucel (hydroxypropylcellulose) (HPC)
# [20] = dose: 25.0 mg/kg/injection, schedule: Q01DX009 (ip), vehicle: Klucel (hydroxypropylcellulose) (HPC)
structure (smiles),measurement,setting,value
COc1cc(C2c3cc4c(cc3OC(O)C2C)OCO4)cc(OC)c1OC (stereo unspecified),T/C,"dose: 15.0 mg/kg/injection, schedule: Q01DX005 (ip), vehicle: saline with Tween-80",99 % of control
same,T/C,"dose: 30.0 mg/kg/injection, schedule: Q01DX005 (ip), vehicle: saline with Tween-80",101 % of control
same,T/C,[1],99 % of control and 112 % of control
same,T/C,[2],117 % of control
O=C1c2cccc3cccc(c23)C(=O)N1CCCCCCCCN1C(=O)c2cccc3cccc(c23)C1=O,T/C,[3],96 % of control
same,T/C,[4],95 % of control
same,T/C,[5],87 % of control
O=c1[nH]cnc2n[nH]nc12,T/C,[6],107 % of control
same,T/C,[7],100 % of control
same,T/C,[8],117 % of control
same,T/C,[9],109 % of control
same,T/C,[10],121 % of control
O=C(O)c1cc(CCCC(=O)c2cc(C(=O)O)c(O)c3ccccc23)c2ccccc2c1O,T/C,"dose: 100.0 mg/kg/injection, schedule: Q04DX002 (ip), vehicle: Klucel (hydroxypropylcellulose) (HPC)",90 % of control
CSCCC(NC(=O)c1cnc2ccccc2c1)C(N)=O (stereo unspecified),T/C,[1],103 % of control
same,T/C,[2],97 % of control
same,T/C,[11],87 % of control
CN(C)c1ccc(N=Nc2cc3c4ccccc4ccc3c3ccccc23)cc1,T/C,[12],109 % of control
same,T/C,[13],114 % of control
same,T/C,[14],117 % of control
CC(C)(S)C(N)C(=O)O (stereo unspecified),T/C,[12],98 % of control
same,T/C,[13],105 % of control
same,T/C,[14],94 % of control
COc1ccc(NC2=C(Cl)C(=O)C(Nc3ccc(OC)cc3)=C(Cl)C2=O)cc1,T/C,[3],95 % of control
same,T/C,[4],97 % of control
same,T/C,[5],98 % of control
N=C(N)SCc1cccc2c(=O)cc(-c3ccccc3)oc12,T/C,"dose: 25.0 mg/kg/injection, schedule: Q01DX009 (ip), vehicle: saline",118 % of control
same,T/C,"dose: 50.0 mg/kg/injection, schedule: Q01DX009 (ip), vehicle: saline",86 % of control and 93 % of control
same,T/C,"dose: 200.0 mg/kg/injection, schedule: Q01DX009 (ip), vehicle: saline",113 % of control and 122 % of control
CCCCCCN(CCCCCC)c1nsc(Cl)n1,T/C,"dose: 40.0 mg/kg/injection, schedule: Q01DX009 (ip), vehicle: saline with Tween-80",105 % of control
same,T/C,"dose: 80.0 mg/kg/injection, schedule: Q01DX009 (ip), vehicle: saline with Tween-80",108 % of control
same,T/C,"dose: 160.0 mg/kg/injection, schedule: Q01DX009 (ip), vehicle: saline with Tween-80",111 % of control
O=C(c1ccccc1)c1cnc2ccccn12,T/C,[15],100 % of control
same,T/C,[16],100 % of control
CCOC(=O)C1(c2ccccc2)CCN(c2c3ccccc3nc3ccccc23)CC1,T/C,[17],112 % of control
same,T/C,[18],111 % of control
same,T/C,[15],111 % of control and 115 % of control
CCn1c2ccccc2c2cc(N=Nc3ccnc4c(O)cccc34)ccc21,T/C,[6],119 % of control
same,T/C,[7],117 % of control
same,T/C,[9],108 % of control and 97 % of control
CCn1c2nc(=O)n(C)c(=O)c-2cc2ccccc21,T/C,[8],111 % of control
same,T/C,[9],111 % of control
same,T/C,[10],116 % of control
COc1nc2c(ccn2C2OCC(OC(C)=O)C(OC(C)=O)C2OC(C)=O)c(=O)n1C (stereo unspecified),T/C,[1],100 % of control
same,T/C,[2],97 % of control
same,T/C,[11],100 % of control
Clc1cc(Cl)nc(N2CCCCC2)n1,T/C,[17],105 % of control
same,T/C,[18],102 % of control
same,T/C,[15],100 % of control
same,T/C,[16],105 % of control
CC1(C)c2cccc(O)c2C(=O)C2C(O)=C3C(O)=C(C(N)=O)C(=O)CC3C(O)C21 (stereo unspecified),T/C,[1],109 % of control
same,T/C,[2],111 % of control
same,T/C,[11],121 % of control
CS(=O)(=O)/C=C/c1ccc[nH]1,T/C,[12],98 % of control
same,T/C,[13],99 % of control
same,T/C,[14],99 % of control
Cc1cccc2nc(-c3ccccn3)n(CCc3ccccn3)c12,T/C,"dose: 50.0 mg/kg/injection, schedule: Q01DX005 (ip), vehicle: Klucel (hydroxypropylcellulose) (HPC)",98 % of control
same,T/C,"dose: 100.0 mg/kg/injection, schedule: Q01DX005 (ip), vehicle: Klucel (hydroxypropylcellulose) (HPC)",106 % of control
C=Cc1cc[n+](CC(=O)c2ccc(-c3ccccc3)cc2)cc1,T/C,[19],103 % of control
same,T/C,[20],90 % of control
same,T/C,[12],92 % of control
COc1ccc(N=Nc2c(C)nn(C(=S)S)c2C)cc1,T/C,[3],113 % of control
same,T/C,[4],101 % of control
same,T/C,[5],106 % of control
CO/C=C(/C#N)S(=O)(=O)/C(C#N)=C/OC,T/C,[3],100 % of control
same,T/C,[4],112 % of control
same,T/C,[5],104 % of control
COC1C(COC(=O)c2ccccc2)OC(OC(C)=O)C1OC(C)=O (stereo unspecified),T/C,[3],94 % of control
same,T/C,[4],96 % of control
same,T/C,[5],100 % of control
COc1ccc(OC)c(CC=C(C)C)c1,T/C,"dose: 15.25 mg/kg/injection, schedule: Q01DX009 (ip), vehicle: Klucel (hydroxypropylcellulose) (HPC)",100 % of control
same,T/C,"dose: 30.5 mg/kg/injection, schedule: Q01DX009 (ip), vehicle: Klucel (hydroxypropylcellulose) (HPC)",97 % of control
same,T/C,"dose: 61.0 mg/kg/injection, schedule: Q01DX009 (ip), vehicle: Klucel (hydroxypropylcellulose) (HPC)",107 % of control
same,T/C,"dose: 122.0 mg/kg/injection, schedule: Q01DX009 (ip), vehicle: Klucel (hydroxypropylcellulose) (HPC)",100 % of control
O=C1C2CCCN2C(=S)N1c1ccccc1 (stereo unspecified),T/C,"dose: 60.0 mg/kg/injection, schedule: Q01DX005 (ip), vehicle: Klucel (hydroxypropylcellulose) (HPC)",96 % of control
same,T/C,"dose: 120.0 mg/kg/injection, schedule: Q01DX005 (ip), vehicle: Klucel (hydroxypropylcellulose) (HPC)",91 % of control
same,T/C,"dose: 240.0 mg/kg/injection, schedule: Q01DX005 (ip), vehicle: Klucel (hydroxypropylcellulose) (HPC)",94 % of control
NCCCN=c1ccc2c3c1c(O)c1c(O)ccc(=O)c1c3[nH]n2CCNCCO,T/C,"dose: 3.12 mg/kg/injection, schedule: Q04DX002 (ip), vehicle: saline",165 % of control
same,T/C,"dose: 3.12 mg/kg/injection, schedule: Q04DX002 (ip), vehicle: water",165 % of control
same,T/C,"dose: 6.25 mg/kg/injection, schedule: Q04DX002 (ip), vehicle: saline",165 % of control
same,T/C,"dose: 6.25 mg/kg/injection, schedule: Q04DX002 (ip), vehicle: water",172 % of control
same,T/C,"dose: 9.72 mg/kg/injection, schedule: Q04DX002 (ip), vehicle: water",196 % of control
same,T/C,"dose: 12.5 mg/kg/injection, schedule: Q04DX002 (ip), vehicle: saline",190 % of control
same,T/C,"dose: 12.5 mg/kg/injection, schedule: Q04DX002 (ip), vehicle: water",177 % of control
same,T/C,"dose: 16.2 mg/kg/injection, schedule: Q04DX002 (ip), vehicle: water",199 % of control
same,T/C,"dose: 17.0 mg/kg/injection, schedule: Q01DX001 (ip), vehicle: water",268 % of control
same,T/C,"dose: 25.0 mg/kg/injection, schedule: Q04DX002 (ip), vehicle: saline",207 % of control
same,T/C,"dose: 25.0 mg/kg/injection, schedule: Q04DX002 (ip), vehicle: water",250 % of control
same,T/C,"dose: 27.0 mg/kg/injection, schedule: Q04DX002 (ip), vehicle: water",245 % of control
same,T/C,"dose: 45.0 mg/kg/injection, schedule: Q04DX002 (ip), vehicle: water",323 % of control
same,T/C,"dose: 50.0 mg/kg/injection, schedule: Q04DX002 (ip), vehicle: saline",254 % of control
same,T/C,"dose: 50.0 mg/kg/injection, schedule: Q04DX002 (ip), vehicle: water",272 % of control
CCN(CC)CC1(C)NN=C2C(n3cccc3)=CC=CN21 (stereo unspecified),T/C,"dose: 60.0 mg/kg/injection, schedule: Q01DX005 (ip), vehicle: saline",104 % of control
same,T/C,"dose: 120.0 mg/kg/injection, schedule: Q01DX005 (ip), vehicle: saline",100 % of control
COC(=O)C(CCCN=C(N)N)NC(=O)C(N)CCCCN (stereo not drawn) (H-Lys-Arg-OMe; configuration not given here),T/C,[1],100 % of control
same,T/C,[2],100 % of control
same,T/C,[11],100 % of control
